The target of one data set is T1, ATX (Homo sapiens, UniProt Q13822).
T1 construct: purchased
Description: ATX activity assay (Autotaxin inhibitor test kit, fluorescent ATX substrate). Type of data set: biochemical. As for the experimental part: (§1) A solution of 10 mM of the inhibitor to test in DMSO was received. Adding 40.5 μL of this solution to 959.5 μL DMSO gave a concentration of 405 μM. […] For a threefold dilution series 800 μL of 18% DMSO in water were dispensed in twelve 1.5 mL test tubes. 400 μL of the 75.9 μM inhibitor solution were added to the first vial and the solution was vortexed. For every dilution step 400 μL of the corresponding previous dilution step were transferred and mixed by vortexing. The obtained concentrations were 7594 nM, 2531 nM, 844 nM, 281 nM, 94 nM, 31 nM, 10 nM, 3.47 nM, 1.16 nM, 0.39 nM, 0.13 nM, 0.043 nM, 0.014 nM. The eight concentration steps from 31 nM to 0.014 nM were used in the assay.
The assay was performed according to the attached manual of the assay kit. In brief 80 μL reaction buffer containing ATX, 10 μL of the dilution series from the inhibitor and 10 μL fluorescent ATX substrate solution were mixed in a well of a 96 well plate. Cleavage of the substrate by ATX causes increase in fluorescence (excitation 485 nm, emission 528 nm), which is measured by a plate reader in 1 min intervals. The increase of fluorescence between 5 min and 15 min was used to calculate the reaction rate.
The autotaxin reaction was performed in four parallel replicates for the target inhibitor and two replicates for the positive control BrP-LPA. The slope of the increase in fluorescence was calculated by Excel using the “slope” function. The IC50 was calculated by GraphPad Prism using the nolinear regression (curve fit): “log (inhibitor) vs. response with variable slope (four parameters)”.
The autotaxin reaction was performed in three parallel replicates for the target inhibitors MJK2234001 and MJK2234002 and two replicates for MJK2134025 and two replicates for the positive control BrP-LPA. All ATX-tests were performed using the protocol as described above with minor modifications. Those modifications refer to the dilution principle:
as §1, with “The obtained concentrations were 7594 nM, 2531 nM, 844 nM, 281 nM, 94 nM, 31 nM, 10 nM, 3.47 nM, 1.16 nM, 0.39 nM, 0.13 nM, 0.043 nM, 0.014 nM.” left out, “300” for “31”, “0.14” for “0.014”, “assay. During the assay, the final concentration of the inhibitor during the reaction was 1/10th of the added inhibitor solution.” for “assay.”

A short description of data set [1]: Cytotoxicity testing in HeLa cells (methylene blue). It is filed as cell-based. To be noted: human, HeLa cells (DSM ACC 57), 72 hours incubation. Here is the method:
Hela cells (DSM ACC 57) were grown in RPMI 1640 medium supplemented with 10 mL·L^−1 ultraglutamine 1 (CAMBREX 17-605E/U1), 550 μL·L^−1 gentamicin sulfate (50 mg·mL^−1, CAMBREX 17-518Z) and 10% heat inactivated fetal bovine serum (GIBCO Life Technologies 10270-106) at 37° C. in a 5% CO2 atmosphere in high density polyethylene flasks (NUNC 156340). Cells were pre-incubated for 48 hours in the absence of test substances. Subsequently, Hela cells were incubated with serial dilutions of the test substances in 96 well microplates for 72 hours at 37° C. in a humidified atmosphere and 5% CO2. After incubation, the cytolytic effect of compounds was analyzed relative to the negative control (DMSO) using a colorimetric assay (methylene blue). The adherent Hela cells were fixed by glutaraldehyde (MERCK 1.04239.0250) and stained with a 0.05% solution of methylene blue (SERVA 29198) for 15 min. After gentle rinsing, the stain was eluted through addition of 0.2 mL hydrochloric acid (0.33 M) to each well. The absorptions were measured at 660 nm in a SUNRISE microplate reader (TECAN). Four replicates were assayed for each substance. […] All calculations of CC50 values were performed with the software Magellan (TECAN).

SMILES strings stand for the structures. Entries after “also recorded” stand apart in the source; their conditions may differ.

Consider one compound from patent US20240391903A1, “AUTOTAXIN-INHIBITORS” (UNIVERSITAET MUENSTER, priority 2021, published 2024).

Take `O=C(OCc1cc(C(F)(F)F)cc(C(F)(F)F)c1)N1CCN(CCS(=O)(=O)c2ccc3nn[nH]c3c2)CC1` [MJK2134025, 3,5-bis(trifluoromethyl)benzyl 4-(2-((1H-benzo[d][1,2,3]triazol-6-yl)sulfonyl)ethyl)piperazine-1-carboxylate]: the “ATX-inhibitory activity (comparison in words)” value on ATX is on record as “almost equal ATX-inhibitory activity; also recorded: comparable ATX-inhibtion as PF8380”. On ATX (read-out: IC50 (nM) ATX inhibition), the IC50 is 1.8 nM. The compound also returned a CC50 at 72 h in data set [1] of 45100 nM.
